By IC50 is commonly meant the concentration at which inhibition is half-maximal.

Sequence of CRAC channel (Q96D31 whole entry): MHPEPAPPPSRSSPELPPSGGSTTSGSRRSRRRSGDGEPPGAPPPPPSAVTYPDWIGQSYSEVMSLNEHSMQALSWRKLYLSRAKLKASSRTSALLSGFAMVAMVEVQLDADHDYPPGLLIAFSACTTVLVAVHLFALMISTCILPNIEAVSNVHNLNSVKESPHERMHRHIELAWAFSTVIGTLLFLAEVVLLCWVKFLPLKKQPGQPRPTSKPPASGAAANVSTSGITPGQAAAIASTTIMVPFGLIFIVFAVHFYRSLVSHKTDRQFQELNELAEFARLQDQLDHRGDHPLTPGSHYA

The target of one test is CRAC channel (Homo sapiens (Human), UniProt Q96D31). In words: GFP-NFAT translocation-based high-content screening (TG-stimulated HeLa cells stably expressing GFP-NFAT). It counts as cell-based. The conditions noted are these: 200 μM compound. An excerpt:
It is known that thapsigargin (TG) can induce the CRAC channel to open resulting in the calcium influx. The elevation of calcium in cytoplasm can activate the Ca^2+-calcineurin-NFAT pathway followed by NFAT translocation from the cytoplasm to the nucleus to regulate gene transcription. Therefore, the inventors built a GFP-NFAT translocation-based high-content screening method to evaluate the activity of compounds on CRAC channel. Briefly, a HeLa cell line stably expressing GFP-NFAT was established and used, and the images after chemical stimulation in the presence of TG were acquired using an IN Cell Analyzer 6000 confocal laser imaging system, and then the GFP fluorescent intensity ratio between cytoplasm and nucleus was analyzed to reflect the inhibitory activity of compound on CRAC channel.
Briefly, GFP-NFAT stable cells were cultured in Dulbecco's modified eagle's medium (DMEM) supplemented with 10% FBS in 5% carbon dioxide at 37° C. When it reached 90% confluency, a cell suspension with a concentration of […] was prepared, and an amount of 2000 cells per well (25 μL/well) was seeded in 384 well plate, putting it at the room temperature for 1 h to make sure the cells distribute evenly, then the cells were incubated overnight. First, primary screening of the selected compounds was conducted. A series of compound solutions with a concentration of 200 μM in MEDM medium were prepared in a 96 well plate and then added to a 384 well plate using a Beckman Coulter automatic drug adding system, in 4 duplicates, and incubated for 30 min at 37° C. SKF was selected as the positive control. Then, 1 μM TG and 1 mM Ca^2+ were added to 384-well plate using Beckman Coulter automatic drug adding system and incubated for 20 min. Subsequently, 384 well plate was gently washed with PBS twice, and the cells were fixed with 4% PFA (25 μl per well) for 10˜15 mins at room temperature, then washed with PBS gently, added 0.5% Triton X-100 (25 μL per well), and incubated for 5 mins aFt room temperature, stained with DAPI (1 μg/mL) for 5˜10 mins at room temperature, washed with PBS and added 30 μL PBS per well to image on confocal laser imaging system (objective lens: 10×, FITC and UV). Using Pipeline Plot software (NAFT translocation protocol), the intensity of green fluorescence was analyzed in nucleus and cytosol, calculate the ratio of nucleus:cytosol, normalize TG stimulate NFAT translocation as 1 and no TG adding as 0. Finally, the data was analyzed using GraphPad Prism 5 software.
On to `CCN/C(=N\c1cccc(C(F)(F)F)c1)S[C@H]1CC(=O)N(c2ccc(C(=O)O)cc2)C1=O` [Compound 03], for which the “Inhibitory activity on CRAC channel in primary screening (NFAT nucleus-to-cytosol ratio)” value is on record as “good activity”.
The same measure, in the same setting: to `CCN/C(=N/c1ccc(C)c(Cl)c1)SC1CC(=O)N(c2ccc(C(=O)OC)cc2)C1=O` (centres unmarked) [Compound 62] belongs “good inhibition”.

Staying with this test, now noted: GFP-NFAT translocation assay; read-out: IC50 on CRAC channel.
As to `CCN/C(=N\c1cccc(C(F)(F)F)c1)S[C@H]1CC(=O)N(c2ccc(C(=O)O)cc2)C1=O` [Compound 03], the IC50 was about 100 µM.

The test is the same for the next values; noted with them: Table 1, hits from virtual screening; unit inferred; read-out: IC50 Value.
`CCN/C(=N\c1cccc(C(F)(F)F)c1)S[C@H]1CC(=O)N(c2ccc(C(=O)O)cc2)C1=O` [Compound 03]: the IC50 stood at 144 µM.
On the same count and under the same terms, the same measure for `Cc1cc(C)c(S(=O)(=O)Nc2ccc(O)c(C(=O)O)c2)c(C)c1` [Compound 06]: over 200 µM; for `Cc1ccc(Oc2ccc3c(c2)C(=O)N(CC(=O)O)C3=O)cc1` [Compound 07]: over 200 µM; for `O=C(CSCc1c(Cl)cccc1Cl)Nc1ccc(C(=O)O)cc1` [Compound 09]: over 200 µM.
For `Cc1cc(=O)n2c3c(cc(S(=O)(=O)NCc4ccc(C(=O)O)cc4)cc13)CC2` [Compound 12], the half-maximal inhibitory concentration (IC50) is over 200 µM.
`O=C(CCCc1nc(-c2ccccc2)no1)Nc1ccc(C(=O)O)cc1` [Compound 13]: the IC50 is over 200 µM.
Turning to `O=C(O)c1ccc(-c2ccc(CNC3CCCCC3)o2)cc1` [Compound 14], the IC50 was over 200 µM.
The same measure, in the same setting: the same measure for `Cc1cccc(C)c1OCC(=O)NCc1ccc(C(=O)O)cc1` [Compound 17]: over 200 µM; for `O=C(O)c1ccc(NC(=O)C2CC(=O)N(c3ccc(Cl)cc3)C2)cc1` (centres unmarked) [Compound 18]: over 200 µM.
On the same count and under the same terms, the same measure for `CCOc1cc(Cl)c(S(=O)(=O)N2CCC(C(=O)O)CC2)cc1Cl` [Compound 19]: over 200 µM.
On to `CC(SC1N=C(c2ccccc2)C(c2ccccc2)=N1)C(=O)O` (centres unmarked) [Compound 22], for which the IC50 is over 200 µM.
The same measure, in the same setting: to `CCc1ccc(C=C(C(=O)O)C(=O)O)s1` [Compound 23] belongs over 200 µM.
As for `O=C(O)c1ccc(N2C(=O)c3cccc4cc(Br)cc(c34)C2=O)cc1` [Compound 24], the IC50 is over 200 µM.
On the same count and under the same terms, the same measure for `C=CC[C@H]1N(c2ccccc2Cl)C[C@H]2[C@H](C(=O)O)[C@@H]3C=C[C@@]21O3` [Compound 25]: over 200 µM; for `CC(=C\C(=O)O)/C(=C/c1ccc(C)o1)C(=O)O` [Compound 27]: over 200 µM.
Same read-out and setting: to `Nc1c(S(=O)(=O)O)ccc2c1C(=O)c1ccccc1C2=O` [Compound 28] belongs over 200 µM.
On the same count and under the same terms, to `Cc1nn([C@H](CC(=O)O)C(=O)O)c(C)c1I` [Compound 29] belongs over 200 µM; to `CCN/C(=N\c1ccc(Cl)c(Cl)c1)S[C@H]1CC(=O)N(c2ccc(C(=O)O)cc2)C1=O` [Compound 30], over 200 µM; to `Cc1cc2nc(S(=O)(=O)O)n(C)c2cc1C` [Compound 31], over 200 µM.
Turning to `Cc1c(C(=O)O)nnn1-c1ccc(Br)cc1` [Compound 32], the IC50 is over 200 µM.
The same measure, in the same setting: to `O=C(O)c1ccc(C(=O)Nc2ccc(Br)cc2)c(C(=O)O)c1` [Compound 33] belongs over 200 µM; to `COc1ccc(-c2occ(C(=O)O)c2C(=O)O)cc1` [Compound 34], over 200 µM; to `O=C(O)c1ccc2c(c1)[C@@H](Cl)Cc1ccccc1S2` [Compound 35], over 200 µM.
Same read-out and setting: the same measure for `O=C1CCC(=O)N1c1ccc(S(=O)(=O)O)cc1` [Compound 36]: over 200 µM; for `O=C(O)CN1C(=O)[C@@H]2[C@@H](C1=O)[C@H]1C=C[C@@H]2C1` [Compound 37]: over 200 µM; for `Cc1nn(-c2ccc([N+](=O)[O-])cc2)c(Cl)c1S(=O)(=O)O` [Compound 38]: over 200 µM.
With `O=C(O)[C@H]1CC(=O)N(c2ccc(I)cc2)C1` [Compound 39], the IC50 is over 200 µM.
Regarding `C#CCOc1ccc2ccccc2c1/C=C1\SC(Nc2cccc(C(=O)O)c2)=NC1=O` [Compound 40], the IC50 was over 200 µM.
On the same count and under the same terms, to `Cc1ccc(N2C(=O)c3ccc(C(=O)O)cc3C2=O)cc1Cl` [Compound 42] belongs over 200 µM.
Turning to `Cc1cc(C)n(-c2ccc(S(=O)(=O)O)cc2)n1` [Compound 43], the IC50 is over 200 µM.
The same measure, in the same setting: the same measure for `O=C(O)CCC(=O)Nc1ccc(OCCc2ccccc2)cc1` [Compound 44]: over 200 µM; for `Cc1ccc(S(=O)(=O)Nc2ccc(O)c(C(=O)O)c2)c(C)c1` [Compound 46]: over 200 µM; for `O=C(O)c1ccc(NC(=O)[C@H]2CC(=O)N(c3ccc(Cl)cc3)C2)cc1` [Compound 47]: over 200 µM.
On the same count and under the same terms, the same measure for `Nc1nc(C(=O)O)nn1C12CC3CC(CC(C3)C1)C2` [Compound 48]: over 200 µM.
Consider `CN(C)c1ccc(CNCc2ccc(C(=O)O)cc2)cc1` [Compound 49], for which the IC50 was over 200 µM.
Turning to `Cc1ccc(Oc2ccc(N3C[C@H](C(=O)O)CC3=O)cc2)cc1C` [Compound 50], the IC50 was over 200 µM.
For `O=c1[nH]nnc2c1C1=C(CCCC1)C2` [Compound 51], the IC50 was over 200 µM.

Still in this test, the particulars now being: Table 1; compound marked as agonist; unit inferred; read-out: IC50 Value (agonist).
For the molecule `CN1C(=O)C(Cc2ccc(O)c(Cl)c2)S/C1=N\c1cccc(C(=O)O)c1` (centres unmarked) [Compound 21], the IC50 is 60.3 µM.

Staying with this test, now noted: Table 2; unit inferred; read-out: IC50 of the compounds (inhibitory activity on CRAC channel).
As to `O=C(O)c1ccc(N2C(=O)CC(S/C(=N\c3ccccc3)Nc3ccccc3)C2=O)cc1` (centres unmarked) [Compound 52], the 50% inhibitory concentration (IC50) is over 200 µM.
Regarding `CN/C(=N/c1ccc(F)cc1)SC1CC(=O)N(c2ccc(C(=O)O)cc2)C1=O` (centres unmarked) [Compound 54], the IC50 was over 200 µM.
Turning to `CCN/C(=N/c1ccc(C(F)(F)F)cc1)SC1CC(=O)N(c2ccc(C(=O)O)cc2)C1=O` (centres unmarked) [Compound 55], the IC50 was over 200 µM.
In the case of `CN/C(=N/c1cc(Cl)ccc1Cl)SC1CC(=O)N(c2ccc(C(=O)O)cc2)C1=O` (centres unmarked) [Compound 56], the IC50 is over 200 µM.
Still for that read-out and setting: to `CCOC(=O)c1ccc(N2C(=O)CC(SCc3nnnn3-c3ccccc3)C2=O)cc1` (centres unmarked) [Compound 57] belongs over 200 µM; to `COC(=O)c1ccc(N2C(=O)CC(S/C(=N\c3ccccc3)NCc3ccc4c(c3)OCO4)C2=O)cc1` (centres unmarked) [Compound 58], over 200 µM; to `CN/C(=N/c1ccc(I)cc1)SC1CC(=O)N(c2ccc(C(=O)O)cc2)C1=O` (centres unmarked) [Compound 59], over 200 µM.
Consider `CN/C(=N/c1ccc(C)c(Cl)c1)SC1CC(=O)N(c2ccc(C(=O)O)cc2)C1=O` (centres unmarked) [Compound 60], for which the IC50 was over 200 µM.
Take `CCN/C(=N/c1ccccc1)SC1CC(=O)N(c2ccc(C(=O)O)cc2)C1=O` (centres unmarked) [Compound 61]: the IC50 was over 200 µM.
The same measure, in the same setting: the same measure for `CCN/C(=N/c1ccc(C)c(Cl)c1)SC1CC(=O)N(c2ccc(C(=O)OC)cc2)C1=O` (centres unmarked) [Compound 62]: 11.3 µM; for `CN/C(=N/c1ccccc1OC)SC1CC(=O)N(c2ccc(C(=O)OC)cc2)C1=O` (centres unmarked) [Compound 63]: 74.4 µM.
Consider `CN/C(=N/c1ccccc1)SC1CC(=O)N(c2ccc(C(=O)OC)cc2)C1=O` (centres unmarked) [Compound 64], for which the IC50 turned out to be 24.9 µM.
The same measure, in the same setting: to `COC(=O)c1ccc(N2C(=O)CC(S/C(=N\c3cccc(C(F)(F)F)c3)NCCc3ccc(OC)c(OC)c3)C2=O)cc1` (centres unmarked) [Compound 67] belongs over 200 µM; to `COC(=O)c1ccc(N2C(=O)CC(S/C(=N\c3ccc(Cl)cc3)NCc3ccccc3)C2=O)cc1` (centres unmarked) [Compound 68], over 200 µM.
In the case of `CN/C(=N/c1cc(Cl)cc(Cl)c1)SC1CC(=O)N(c2ccc(C(=O)O)cc2)C1=O` (centres unmarked) [Compound 69], the IC50 stood at 108 µM.
`CN/C(=N/c1cccc(F)c1)SC1CC(=O)N(c2ccc(C(=O)O)cc2)C1=O` (centres unmarked) [Compound 70]: the IC50 was over 200 µM.
As to `CN/C(=N/c1cccc(OC)c1)SC1CC(=O)N(c2ccc(C(=O)O)cc2)C1=O` (centres unmarked) [Compound 71], the IC50 is over 200 µM.
The same measure, in the same setting: the same measure for `CCN/C(=N/c1cccc(OC)c1)SC1CC(=O)N(c2ccc(C(=O)O)cc2)C1=O` (centres unmarked) [Compound 72]: over 200 µM.

(Values after patent publication US11905244B2, “Chemical modulators of store-operated calcium channels and their therapeutic applications” (The Texas A&M University System, priority 2017, dated 2024).)
